The text below walks through data of ChEMBL document CHEMBL4330132, “5-Keto-3-cyano-2,4-diaminothiophenes as selective maternal embryonic leucine zipper kinase inhibitors” (Bioorg Med Chem Lett, 2019).

Experiment [1] deals with Tyrosine-protein kinase ABL1 (Homo sapiens), P00519 [H396P]. Put plainly: Binding affinity to human non-phosphorylated ABL1 H396P mutant (S229 to K512 residues) expressed in mammalian expression system assessed as residual binding level at 1 uM by Kinomescan method relative to control.
Experiment [2] has as its target Activin receptor type-2A (Homo sapiens) (UniProt P27037). Put plainly: Binding affinity to wild-type human ACVR2A (V171 to T499 residues) expressed in bacterial expression system assessed as residual binding level at 1 uM by Kinomescan method relative to control.
Experiment [3] deals with Calcium/calmodulin-dependent protein kinase type II subunit delta (Homo sapiens) (UniProt Q13557). Put plainly: Binding affinity to wild-type human partial length CAMK2D (M1 to E329 residues) expressed in bacterial expression system assessed as residual binding level at 1 uM by Kinomescan method relative to control.
The target in experiment [4] is Cyclin-dependent kinase 3 (Homo sapiens) (UniProt Q00526). Put plainly: Binding affinity to wild-type human full length CDK3 (M1 to H305 residues) expressed in bacterial expression system assessed as residual binding level at 1 uM by Kinomescan method relative to control.
The target in experiment [5] is Cyclin-dependent kinase 5 (Homo sapiens) (UniProt Q00535). Put plainly: Binding affinity to wild-type human full length CDK5 (M1 to P292 residues) expressed in bacterial expression system assessed as residual binding level at 1 uM by Kinomescan method relative to control.
Experiment [6] addresses Tyrosine-protein kinase CSK (Homo sapiens) (UniProt P41240). Put plainly: Binding affinity to wild-type human full length CSK (M1 to L450 residues) expressed in bacterial expression system assessed as residual binding level at 1 uM by Kinomescan method relative to control.
For experiment [7], the target named is Casein kinase II subunit alpha' (Homo sapiens) (UniProt P19784). Put plainly: Binding affinity to wild-type human full length CSNK2A2 (M1 to R350 residues) expressed in mammalian expression system assessed as residual binding level at 1 uM by Kinomescan method relative to control.
Experiment [8] addresses Death-associated protein kinase 2 (Homo sapiens) (UniProt Q9UIK4). Put plainly: Binding affinity to wild-type human full length DAPK2 (M1 to S370 residues) expressed in bacterial expression system assessed as residual binding level at 1 uM by Kinomescan method relative to control.
The target in experiment [9] is Serine/threonine-protein kinase MRCK gamma (Homo sapiens) (UniProt Q6DT37). Put plainly: Binding affinity to wild-type human partial length DMPK2 (S46 to S408 residues) expressed in bacterial expression system assessed as residual binding level at 1 uM by Kinomescan method relative to control.
Experiment [10] has as its target Fibroblast growth factor receptor 1 (Homo sapiens) (UniProt P11362). Put plainly: Binding affinity to wild-type human partial length FGFR1 (P357 to V669 residues) expressed in bacterial expression system assessed as residual binding level at 1 uM by Kinomescan method relative to control.
Experiment [11] concerns Fibroblast growth factor receptor 3 (Homo sapiens), P22607 [G697C]. Nature of the experiment: Binding affinity to human partial length FGFR3 G697C mutant (R442 to S771 residues) expressed in bacterial expression system assessed as residual binding level at 1 uM by Kinomescan method relative to control.
Experiment [12] concerns the target Tyrosine-protein kinase JAK1 (Homo sapiens) (UniProt P23458). Nature of the experiment: Binding affinity to wild-type human partial length JAK1 JH2 pseudokinase domain (R537 to D855 residues) expressed in mammalian expression system assessed as residual binding level at 1 uM by Kinomescan method relative to control.
Experiment [13] concerns the target Mitogen-activated protein kinase 10 (Homo sapiens) (UniProt P53779). Put plainly: Binding affinity to wild-type human partial length JNK3 (V28 to Q422 residues) expressed in mammalian expression system assessed as residual binding level at 1 uM by Kinomescan method relative to control.
For experiment [14], the system named is Mast/stem cell growth factor receptor Kit (Homo sapiens), P10721 [UNDEFINED MUTATION]. Nature of the experiment: Binding affinity to human partial length KIT V559D/[…] double mutant (Y545 to D952 residues) expressed in bacterial expression system assessed as residual binding level at 1 uM by Kinomescan method relative to control.
The test system of experiment [15] is Hepatocyte growth factor receptor (Homo sapiens), P08581 [M1250T]. Nature of the experiment: Binding affinity to human partial length MET M1250T mutant (D1010 to S1367 residues) expressed in bacterial expression system assessed as residual binding level at 1 uM by Kinomescan method relative to control.
The target in experiment [16] is MAP kinase-interacting serine/threonine-protein kinase 2 (Homo sapiens) (UniProt Q9HBH9). Put plainly: Binding affinity to wild-type human partial length MKNK2 (G63 to S388 residues) expressed in mammalian expression system assessed as residual binding level at 1 uM by Kinomescan method relative to control.
Experiment [17] relates to Phosphatidylinositol 4,5-bisphosphate 3-kinase catalytic subunit alpha isoform (Homo sapiens), P42336 [C420R]. Nature of the experiment: Binding affinity to human partial length PIK3CA C420R mutant (R108 to N1068 residues) expressed in mammalian expression system assessed as residual binding level at 1 uM by Kinomescan method relative to control.
In experiment [18] the test system is Phosphatidylinositol 4,5-bisphosphate 3-kinase catalytic subunit alpha isoform (Homo sapiens), P42336 [H1047L]. Nature of the experiment: Binding affinity to human partial length PIK3CA H1047L mutant (R108 to N1068 residues) expressed in mammalian expression system assessed as residual binding level at 1 uM by Kinomescan method relative to control.
Experiment [19] has as its target Serine/threonine-protein kinase pim-3 (Homo sapiens) (UniProt Q86V86). Nature of the experiment: Binding affinity to wild-type human partial length PIM3 (G16 to A317 residues) expressed in bacterial expression system assessed as residual binding level at 1 uM by Kinomescan method relative to control.
Experiment [20] has as its target Proto-oncogene tyrosine-protein kinase ROS (Homo sapiens) (UniProt P08922). Nature of the experiment: Binding affinity to wild-type human partial length ROS1 (A1921 to N2240 residues) expressed in bacterial expression system assessed as residual binding level at 1 uM by Kinomescan method relative to control.
Experiment [21] deals with Ribosomal protein S6 kinase beta-1 (Homo sapiens) (UniProt P23443). Nature of the experiment: Binding affinity to wild-type human partial length S6K1 (M1 to S421 residues) expressed in mammalian expression system assessed as residual binding level at 1 uM by Kinomescan method relative to control.
The target in experiment [22] is BDNF/NT-3 growth factors receptor (Homo sapiens) (UniProt Q16620). Put plainly: Binding affinity to wild-type human partial length TRKB (Q547 to G838 residues) expressed in mammalian expression system assessed as residual binding level at 1 uM by Kinomescan method relative to control.
The target in experiment [23] is NT-3 growth factor receptor (Homo sapiens) (UniProt Q16288). Nature of the experiment: Binding affinity to wild-type human partial length TRKC (Q531 to G825 residues) expressed in mammalian expression system assessed as residual binding level at 1 uM by Kinomescan method relative to control.
The target in experiment [24] is Mitogen-activated protein kinase kinase kinase 12 (Homo sapiens) (UniProt Q12852). Put plainly: Binding affinity to wild-type human full length DLK (M1 to P859 residues) expressed in mammalian expression system assessed as residual binding level at 1 uM by Kinomescan method relative to control.

Turning to `CC(C)Nc1sc(C(=O)c2ccc(Cl)s2)c(N)c1C#N`, the Activity in experiment [1] is 100%; in [2], 62%; in experiment [3], 79%; in experiment [4] it was 89%; in experiment [5] it was 100%; in [6] it was 88%. Moreover, the Activity came out at 100% in experiment [7]; 66% in experiment [8]; 100% in experiment [9]; 70% in experiment [10]; 96% in experiment [11]; 89% in [12]. The Activity in experiment [13] was 100%; in experiment [14], 57%; in experiment [15], 78%; in experiment [16], 100%; in [17], 100%; in experiment [18] it was 99%. The Activity in experiment [19] was 86%; in experiment [20] it was 82%; in experiment [21], 93%; in experiment [22], 70%; in [23], 87%; in [24], 99%.
